Assay results from the supplement of paper PMC11208160.

Experiment: recombinant UMI read abundance after kanamycin selection (control-corrected) (log10(CPM+1)); higher = more efficient recombination; extreme values may be limits of the assay; sequences stand for … in AGTGCAGAGAAAATCGGCCAGTTTTCTCTGCCTGCAGTCCGCATGCCGTGGGACCCCTTGGGTTCTAACCTGTTGCCTAGATTTATGCAGCGGACTGCCTTTCTCCCAAAGTGATAAACCGG…AGGTTGGTTTCACT; site = the 11-nt donor
Summary of the method: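 Sequencing read counts were converted to CPM, averaged over two replicates and scaled by control-derived factors. Results are given as log10(CPM+1). The reads covered the donor–target junction of recombinant UMIs from a pooled Escherichia coli screen of donor and donor-binding-loop pairs for the IS621 bridge recombinase.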
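Further: IS621 bridge recombinase in Escherichia coli cells against a fixed T5 target plasmid.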

Sequence | recombinant UMI read abundance (log10)
GGATAGCCATGGACCGGTTTTCCCGGTAATCCGTATTTGAG (site GGATAGCCTCT) | 0.00752
GGATAGCCATGGACCGGTTTTCCCGGTAATCCGTATTTGCC (site GGATAGACTGG) | 0
GGATAGCCATGGACCGGTTTTCCCGGTAATCCGTATTTGCC (site GGATAGCCTGG) | 0
GGATAGCCATGGACCGGTTTTCCCGGTAATCCGTATTTGCC (site GGATAGGCTGG) | 0
GGATAGCCATGGACCGGTTTTCCCGGTAATCCGTATTTGCC (site GGATAGTCTGG) | 2.42
GGATAGGCATGGACCGGTTTTCCCGGTAATCCGTATTTGCC (site GGATAGACTGG) | 1.94
GGATAGGCATGGACCGGTTTTCCCGGTAATCCGTATTTGCC (site GGATAGCCTGG) | 0.855
GGATAGGCATGGACCGGTTTTCCCGGTAATCCGTATTTGCC (site GGATAGGCTGG) | 2.44
GGATAGGCATGGACCGGTTTTCCCGGTAATCCGTATTTGCC (site GGATAGTCTGG) | 0.642
GGATAGTCATGGACCGGTTTTCCCGGTAATCCGTATTTGCC (site GGATAGACTGG) | 2.31
GGATAGTCATGGACCGGTTTTCCCGGTAATCCGTATTTGCC (site GGATAGCCTGG) | 0
GGATAGTCATGGACCGGTTTTCCCGGTAATCCGTATTTGCC (site GGATAGGCTGG) | 0
GGATAGTCATGGACCGGTTTTCCCGGTAATCCGTATTTGCC (site GGATAGTCTGG) | 2.79
GGATCATCATGGACCGGTTTTCCCGGTAATCCGTATTTGTG (site GGATCATCTCA) | 0.926
GGATCGACATGGACCGGTTTTCCCGGTAATCCGTATTTGCC (site GGATAGACTGG) | 1.48
GGATCGACATGGACCGGTTTTCCCGGTAATCCGTATTTGCC (site GGATCGACTGG) | 1.28
GGATCGACATGGACCGGTTTTCCCGGTAATCCGTATTTGCC (site GGATGGACTGG) | 0

Sequence | recombinant UMI read abundance (log10)
GGATCGACATGGACCGGTTTTCCCGGTAATCCGTATTTGCC (site GGATTGACTGG) | 0
GGATCGCCATGGACCGGTTTTCCCGGTAATCCGTATTTGCG (site GGATCGCCTCG) | 0.0649
GGATGGACATGGACCGGTTTTCCCGGTAATCCGTATTTGCC (site GGATAGACTGG) | 2.17
GGATGGACATGGACCGGTTTTCCCGGTAATCCGTATTTGCC (site GGATCGACTGG) | 0
GGATGGACATGGACCGGTTTTCCCGGTAATCCGTATTTGCC (site GGATGGACTGG) | 2.47
GGATGGACATGGACCGGTTTTCCCGGTAATCCGTATTTGCC (site GGATTGACTGG) | 0
GGATGGCCATGGACCGGTTTTCCCGGTAATCCGTATTTGCA (site GAATGGCCTTG) | 0
GGATGGCCATGGACCGGTTTTCCCGGTAATCCGTATTTGCA (site GCATGGCCTTG) | 0
GGATGGCCATGGACCGGTTTTCCCGGTAATCCGTATTTGCA (site GGATGGCCTTG) | 0.0128
GGATGGCCATGGACCGGTTTTCCCGGTAATCCGTATTTGCA (site GTATGGCCTTG) | 0
GGATTCGCATGGACCGGTTTTCCCGGTAATCCGTATTTGCG (site GGATTCGCTCG) | 0.0184
GGATTGACATGGACCGGTTTTCCCGGTAATCCGTATTTGTT (site GGATTGACTAA) | 0.888
GGCAAAACATGGACCGGTTTTCCCGGTAATCCGTATTTGTT (site GGCAAAACTAA) | 0.56
GGCAAGCCATGGACCGGTTTTCCCGGTAATCCGTATTTGAA (site GGCAAACCTTT) | 0
GGCAAGCCATGGACCGGTTTTCCCGGTAATCCGTATTTGAA (site GGCAACCCTTT) | 0
GGCAAGCCATGGACCGGTTTTCCCGGTAATCCGTATTTGAA (site GGCAAGCCTTT) | 0.247
GGCAAGCCATGGACCGGTTTTCCCGGTAATCCGTATTTGAA (site GGCAATCCTTT) | 0
